Patent US20210348119A1, “COMPOSITIONS AND METHODS FOR CELL CULTURE” (The United States of America as Represented By The …, priority 2018, published 2021)
“And” between values parts separate entries of the source, which are not always exact repeats. Identical values can stand only once. Like-named read-outs stand apart in the source and are kept apart here.

System: H9 cells
Test: qHTS for survival of dissociated H9 cells (CellTiter-Glo, 24 hours after seeding)
Format: cell-based, human
Description: FIG. 2 schematically illustrates qHTS procedure.
All the screed compounds were received pre-plated at the pre-determined concentrations. […] Curve classification is explained in Huang et al. “Chemical genomics profiling of environmental chemical modulation of human nuclear receptors” Environ. Health. Perspect.

[1] = H9 cell survival normalized to 10 μM Y-27632 (taken to be 100%)
[2] = H9 cell survival, CellTiter-Glo 24 hours after seeding; read-out: AC50 (concentration at 50% efficacy)
[3] = H9 cell survival, normalized to 10 μM Y-27632
[4] = Homo sapiens, H9, 24 h; read-out: Efficacy (activity range between predicted activities at zero and infinite doses, Hill equation)
[5] = Homo sapiens, H9, 24 h; read-out: Max (maximum activity value from all tested concentrations)
[6] = Homo sapiens; H9 cell survival, CellTiter-Glo 24 hours after seeding; read-out: AC50 (concentration at 50% efficacy)
[7] = Homo sapiens, H9, 24 h, H9 cell survival normalized to 10 μM Y-27632 (taken to be 100%); read-out: Max (maximum activity value from all tested concentrations)
[8] = Homo sapiens, H9, 24 h, H9 cell survival, CellTiter-Glo 24 hours after seeding; read-out: AC50 (concentration at 50% efficacy)
[9] = Homo sapiens, H9, 24 h, H9 cell survival, normalized to 10 μM Y-27632; read-out: Efficacy (activity range between predicted activities at zero and infinite doses, Hill equation)
[10] = Homo sapiens, H9, 24 h, read-out: Efficacy (activity range between predicted activities at zero and infinite doses, Hill equation)
[11] = Homo sapiens, H9, 24 h, read-out: Max (maximum activity value from all tested concentrations)

SMILES: N#Cc1cc(-c2ccnc(Nc3ccc(N4CCOCC4)cc3)n2)ccc1OC1CCOCC1 [IKK epsilon-IN-1]
- Max (maximum activity value from all tested concentrations) [1]: 28.74%
- AC50 [2]: 14.7 µM
- Efficacy (activity range between predicted activities at zero and infinite doses, Hill equation) [3]: 30.6

SMILES: C/C=C(/C)C(=O)O[C@H]1C(C)=C[C@]23C(=O)[C@@H](C=C(CO)[C@@H](O)[C@]12O)[C@H]1[C@@H](C[C@H]3C)C1(C)C [Ingenol mebutate]
- Emax [4]: 41.4%
- Emax [5]: 57.6%
- AC50 [6]: 0.118 µM

SMILES: CNc1ccc([N+](=O)[O-])c(Nc2ccc3[nH]ncc3c2)n1 [KRIBB11]
- Max (maximum activity value from all tested concentrations) [1]: 72.62%
- AC50 [2]: 0.585 µM
- Efficacy (activity range between predicted activities at zero and infinite doses, Hill equation) [3]: 62.1

SMILES: O=C(c1ccc(/C=C/c2n[nH]c3ccccc23)cc1)N1CCNCC1 [KW-2449]
- Emax [7]: 40%
- AC50 [8]: 33.2 µM
- Emax [9]: 44.5%

SMILES: O=C(NCc1cccc(O)c1)c1cc2cc(F)ccc2[nH]1 [KX1-004]
- Max (maximum activity value from all tested concentrations) [1]: 102.2%
- AC50 [2]: 3.29 µM
- Efficacy (activity range between predicted activities at zero and infinite doses, Hill equation) [3]: 103

SMILES: Cc1c[nH]c2ncnc(N3CCC(CN)(C(=O)Nc4cccc(OC(=O)N(C)C)c4)CC3)c12 [LX-7101]
- Emax [4]: 21.6%
- Emax [5]: 53.7%
- AC50 [6]: 2.33 µM

SMILES: C[C@]12O[C@H](C[C@]1(O)CO)n1c3ccccc3c3c4c(c5c6ccccc6n2c5c31)CNC4=O [Lestaurtinib]
- AC50 (Homo sapiens, H9, 24 h, read-out: AC50 (concentration at 50% efficacy)): 1.18 µM
- Emax [10]: 7.59%
- Emax [11]: 53%

SMILES: Cc1nc(N2CCN(C(=O)c3ccco3)CC2)c2c3c(sc2n1)CCCC3 [ML192]
- Max (maximum activity value from all tested concentrations) [1]: 25.23%
- AC50 [2]: 0.521 µM
- Efficacy (activity range between predicted activities at zero and infinite doses, Hill equation) [3]: 13.5

SMILES: N#CCNC(=O)c1ccc(-c2ccnc(Nc3ccc(N4CCOCC4)cc3)n2)cc1 [Momelotinib]
- AC50 [8]: 0.935 µM

SMILES: C=C(CO)C(=O)O[C@H]1CC(=C)[C@@H]2C[C@H](O)C(=C)[C@@H]2[C@H]2OC(=O)C(=C)[C@@H]21 [NCGC00168845-02]
- Max (maximum activity value from all tested concentrations) [1]: 21.8%
- AC50 [2]: 3.61 µM
- Efficacy (activity range between predicted activities at zero and infinite doses, Hill equation) [3]: 27.1

SMILES: CN(C)c1ccc(Nc2nc(N)n(C(=O)c3c(F)cccc3F)n2)cc1 [NCGC00244250]
- Max (maximum activity value from all tested concentrations) [1]: 58.27% and 40.04%
- AC50 [2]: 6.56 µM and 8.33 µM
- Efficacy (activity range between predicted activities at zero and infinite doses, Hill equation) [3]: 23.7 and 39.3

SMILES: CC(C)CC(=O)OC1OC=C(CO[C@@H]2O[C@H](CO)[C@@H](O)[C@H](O)[C@H]2O)C2CC(O)C(O)(CO)C12 (stereo partly drawn) [NCGC00347879-02]
- Max (maximum activity value from all tested concentrations) [1]: 30.87%
- Efficacy (activity range between predicted activities at zero and infinite doses, Hill equation) [3]: 0

SMILES: CC1(CCOC2OC(CO)C(O)C(O)C2O)CCC23OC2(C1)C(O)CC1C(C)(C(=O)O)CCCC13C (stereo not drawn) [NCGC00380931-01]
- Max (maximum activity value from all tested concentrations) [1]: 24.96%
- AC50 [2]: 11.4 µM
- Efficacy (activity range between predicted activities at zero and infinite doses, Hill equation) [3]: 28

SMILES: C[C@@H]1O[C@@H](OC2C(O[C@H]3[C@H](O[C@H]4CC[C@@]5(C)C(CC[C@]6(C)C5CC=C5C7CC(C)(C)CC(O)[C@]7(C)CC[C@]56C)C4(C)C)O[C@H](C(=O)O)[C@@H](O)[C@@H]3O)OC(CO)C(O)C2O)[C@H](O)[C@H](O)[C@H]1O (stereo partly drawn) [NCGC00381003-01]
- Max (maximum activity value from all tested concentrations) [1]: 22.06%
- AC50 [2]: 2.48 µM
- Efficacy (activity range between predicted activities at zero and infinite doses, Hill equation) [3]: 24.5

SMILES: CC(=O)O[C@H]1C(=O)[C@]2(C)C(O)C[C@H]3OC[C@@]3(OC(C)=O)[C@H]2[C@H](OC(=O)c2ccccc2)[C@]2(O)C[C@H](O)C(C)=C1C2(C)C (stereo partly drawn) [NCGC00384655-01]
- Max (maximum activity value from all tested concentrations) [1]: 23.91%
- AC50 [2]: 1.74 µM
- Efficacy (activity range between predicted activities at zero and infinite doses, Hill equation) [3]: 29.1

SMILES: CC1(C)CC[C@]2(C(=O)O[C@@H]3O[C@H](CO[C@@H]4O[C@H](CO)[C@@H](O)[C@H](O)[C@H]4O[C@@H]4O[C@H](CO)[C@H](O)[C@H](O)[C@H]4O)[C@@H](O)[C@H](O[C@@H]4O[C@H](CO)[C@@H](O)[C@H](O)[C@H]4O)[C@H]3O)CC[C@]3(C)C(=CCC4[C@@]5(C)CC[C@H](O[C@@H]6OC[C@@H](O)[C@H](O)[C@H]6O)[C@@](C)(C(=O)O)C5CC[C@]43C)[C@@H]2C1 (stereo partly drawn) [NCGC00384798-01]
- Max (maximum activity value from all tested concentrations) [1]: 38.81%
- Efficacy (activity range between predicted activities at zero and infinite doses, Hill equation) [3]: 0

SMILES: COc1ccc2c(c1O)OC[C@H]1c3ccc(O)cc3O[C@@H]21 [NCGC00384860-01]
- Max (maximum activity value from all tested concentrations) [1]: 22.82%
- AC50 [2]: 18.5 µM
- Efficacy (activity range between predicted activities at zero and infinite doses, Hill equation) [3]: 29.1

SMILES: C=C1CC[C@@H]2[C@@](C)(CO[C@@H]3O[C@H](CO)[C@@H](O)[C@H](O)[C@H]3O)[C@H](O)CC[C@@]2(C)[C@@H]1CC/C(C)=C/CO[C@@H]1O[C@H](CO)[C@@H](O)[C@H](O)[C@H]1O [NCGC00385284-01]
- Max (maximum activity value from all tested concentrations) [1]: 26.38%
- AC50 [2]: 0.001 µM
- Efficacy (activity range between predicted activities at zero and infinite doses, Hill equation) [3]: −31.2

SMILES: C[C@@H]1O[C@@H](O[C@H]2[C@H](O[C@H]3[C@H](O[C@H]4CC[C@@]5(C)C(CC[C@]6(C)C5CC=C5[C@@H]7CC(C)(C(=O)O)C[C@@H](O)[C@]7(C)CC[C@]56C)[C@@]4(C)CO)O[C@H](C(=O)O)[C@@H](O)[C@@H]3O)O[C@H](CO)[C@H](O)[C@@H]2O)[C@H](O)[C@H](O)[C@H]1O (stereo partly drawn) [NCGC00385739-01]
- Max (maximum activity value from all tested concentrations) [1]: 23.02%
- AC50 [2]: 3.13 µM
- Efficacy (activity range between predicted activities at zero and infinite doses, Hill equation) [3]: 24.5

SMILES: COC(=O)c1cc(Br)cnc1N1CCC(NC2CCCCC2)C(O)C1 (stereo not drawn) [NCGC00386932-01]
- Max (maximum activity value from all tested concentrations) [1]: 22.59%
- AC50 [2]: 0.004 µM
- Efficacy (activity range between predicted activities at zero and infinite doses, Hill equation) [3]: −26.5

SMILES: NS(=O)(=O)c1ccc(Nc2nc(OCC3CCCCC3)c3[nH]cnc3n2)cc1 [NU-6102]
- Max (maximum activity value from all tested concentrations) [1]: 46.11% and 34.8%
- Efficacy (activity range between predicted activities at zero and infinite doses, Hill equation) [3]: 57.9 and 43.8

SMILES: Cl.Cl.Fc1ccccc1CNCc1ccc(-c2ccnc3[nH]ccc23)cc1 [OXA 06 dihydrochloride]
- Max (maximum activity value from all tested concentrations) [1]: 108.2%
- AC50 [2]: 0.736 µM
- Efficacy (activity range between predicted activities at zero and infinite doses, Hill equation) [3]: 110

SMILES: CCCCC1C(=O)N(c2ccccc2)N(c2ccc(O)cc2)C1=O (stereo not drawn) [OXYPHENBUTAZONE]
- Max (maximum activity value from all tested concentrations) [1]: 22.37%
- AC50 [2]: 23.3 µM
- Efficacy (activity range between predicted activities at zero and infinite doses, Hill equation) [3]: 25.7

SMILES: CNS(=O)(=O)C[C@H]1CC[C@H](N(C)c2ncnc3[nH]ccc23)CC1 [Oclacitinib (PF-03394197), Oclacitinib]
- Emax [7]: 93.8%
- AC50 [8]: 20.8 µM
- Emax [9]: 99.9%

SMILES: CC1(C)CC[C@]2(C(=O)O)CC[C@]3(C)C(=CC[C@@H]4[C@@]5(C)CC[C@H](O)C(C)(C)[C@@H]5CC[C@]43C)[C@@H]2C1 [Oleanolic acid]
- Emax [7]: 20.3%
- AC50 [8]: 0.37 µM
- Emax [9]: -10.7%

SMILES: C[C@@H]1CCN(C(=O)N2CCCC2)C[C@@H]1N(C)c1ncnc2[nH]ccc12 [PF-956980]
- Max (maximum activity value from all tested concentrations) [1]: 47.75%
- AC50 [2]: 23.3 µM
- Efficacy (activity range between predicted activities at zero and infinite doses, Hill equation) [3]: 53

SMILES: N#Cc1cccc(-c2c[nH]c3ncnc(N4CCOCC4)c23)c1 [PF-06447475]
- Max (maximum activity value from all tested concentrations) [1]: 42.8%
- AC50 [2]: 16.5 µM
- Efficacy (activity range between predicted activities at zero and infinite doses, Hill equation) [3]: 44.6

SMILES: COc1ccccc1-c1c[nH]c2ncc(-c3cncc(C(=O)N(C)C)c3)cc12 [PPY A]
- Max (maximum activity value from all tested concentrations) [1]: 37.42%
- AC50 [2]: 2.93 µM
- Efficacy (activity range between predicted activities at zero and infinite doses, Hill equation) [3]: 41.9

SMILES: CCCCCCCCCCCCCC(=O)O[C@@H]1[C@@H](C)[C@@]2(O)[C@@H](C=C(CO)C[C@]3(O)C(=O)C(C)=C[C@@H]23)[C@@H]2C(C)(C)[C@]12OC(C)=O [Phorbol 12-myristate 13-acetate]
- Max (maximum activity value from all tested concentrations) [1]: 48.49%
- AC50 [2]: 0.21 µM
- Efficacy (activity range between predicted activities at zero and infinite doses, Hill equation) [3]: 36.8

SMILES: CC(N/C(=N\C#N)Nc1ccncc1)C(C)(C)C (stereo not drawn) [Pinacidil]
- AC50 [8]: 21.1 µM
- Emax [10]: 86.4%
- Emax [11]: 83.1%

SMILES: CC(C)(C)c1nc2c3cc[nH]c(=O)c3c3cc(F)ccc3c2[nH]1 [Pyridone 6]
- Max (maximum activity value from all tested concentrations) [1]: 28.9%
- Efficacy (activity range between predicted activities at zero and infinite doses, Hill equation) [3]: 0

SMILES: O=S(=O)(NCC1CC1)c1ccc(Nc2nccc(N3CCCc4cc(O)ccc43)n2)cc1 [Pyrintegrin]
- Max (maximum activity value from all tested concentrations) [1]: 27.85%
- AC50 [2]: 3.29 µM
- Efficacy (activity range between predicted activities at zero and infinite doses, Hill equation) [3]: 31

SMILES: O=C(NCc1cccc(O)c1)Nc1nc(-c2ccncc2)cs1 [RKI-1447]
- Max (maximum activity value from all tested concentrations) [1]: 103.2%
- AC50 [2]: 0.083 µM
- Efficacy (activity range between predicted activities at zero and infinite doses, Hill equation) [3]: 106

SMILES: Cc1cc(Nc2cc(NC(=O)c3c(Cl)cccc3Cl)ccn2)nc(N)n1 [RO495]
- Max (maximum activity value from all tested concentrations) [1]: 89.28%
- AC50 [2]: 4.69 µM
- Efficacy (activity range between predicted activities at zero and infinite doses, Hill equation) [3]: 73.1

SMILES: O=C(Nc1ccc2[nH]ncc2c1)C1CCC1 [Rhodblock 6]
- Max (maximum activity value from all tested concentrations) [1]: 61.61%
- AC50 [2]: 23.3 µM
- Efficacy (activity range between predicted activities at zero and infinite doses, Hill equation) [3]: 67.9
